From US8865659B2, “Compositions for prevention or treatment of Hepatitis C virus containing ginsenoside Rg3 as an active ingredient” (priority 2012, dated 2014) come the findings set out here.

The test system of this assay is thioredoxin. Description: Western blotting against thioredoxin in JFH-1 infected Huh 7.5.1 cells. It is filed as cell-based. The following applies: 100 μM, 72 hours. How it is done:
To examine the ginsenoside Rg3 effect onto anti-oxidant enzymes, western blotting analysis against thioredoxin, an anti-oxidant enzyme induced by Hepatitis C, was carried out. the analysis was conducted 72 hours after the samples of Huh 7.5.1 cells treated with each 100 μM of seven ginsenosides (Ro, Re, Rg1, Rg2, Rg3, Rh1, Rh2) as described above in the Example 3.
Specifically, western blotting analysis was carried out as follow. First, the above described samples were prepared, mixed with a sample buffer in tubes, and heated at 100° C. for 10 minutes. The tubes were cooled on ice and centrifuged. The electrophoresis was carried out with the prepared samples and molecular weight markers were put in. And then, they were transferred to a PVDF membrane (hydrophobic). After blocking with 5% skin milk for an hour, primary antibodies of thioredoxin was added. After staying overnight at 4° C., washing three times for every 10 minutes, blocking with 5% skin milk for an hour at the room temperature was carried out. After that, each secondary antibody was added and waited one hour for its reaction and washing three times for every 10 minutes were carried out. Then, the membrane was stained by 1:1 mixture of detection reagents A (Luminol Enhancer solution) and B (Peroxide solution) and developed with X ray film.
In general terms: In western blotting, separated proteins are transferred to a membrane and probed.

Each structure is given as a SMILES string.

Take `CC(C)=CCC[C@](C)(O)[C@H]1CC[C@]2(C)[C@@H]1[C@H](O)C[C@@H]1[C@@]3(C)CC[C@H](O[C@@H]4O[C@H](CO)[C@@H](O)[C@H](O)[C@H]4O[C@@H]4O[C@H](CO)[C@@H](O)[C@H](O)[C@H]4O)C(C)(C)[C@@H]3CC[C@]12C` [ginsenoside Rg3]: the thioredoxin entry is on record as “decreased”.
